# Structures can show the parent of a compound that is named as a salt.
# Experiments:
# [1] = tested on: acute EAE murine model of MS; assay: Acute EAE murine model (MOG-induced), clinical score over 35 days; type: in vivo, female C57BL/6J mice
# NMDA receptor = conditions: dose producing the anti-NMDA effect; cited from earlier work
# [2] = disturbance of coordination of movement and a sedative effect; cited from earlier work
Compound,"activity (average clinical score) compared to the vehicle-only treatment group (1F) ([1]; 1.0 mg/kg IP once daily from study day 0, 35-day study, n = 10)","activity (average clinical score) compared to the vehicle-only treatment group (1F) ([1]; 10.0 mg/kg IP once daily (group 5F), at the end of the study)","activity (average clinical score) compared to the vehicle-only treatment group (1F) ([1]; 10.0 mg/kg IP once daily (group 5F), intermediate time points, days 26 and 27)",ED50 of anti-NMDA effect (NMDA receptor),adverse effects at doses producing the anti-NMDA effect [2]
"Cc1ccc2c(c1)c1c(n2CCc2ccc(C)nc2)CCN(C)C1 [Dimebon, 2,8-dimethyl-5-(2-(6-methyl-3-pyridyl)ethyl)-2,3,4,5-tetrahydro-1H-pyrido[4,3-b]indole dihydrochloride]",statistically significant,not statistically significant,statistically significant,,
"NC(CCCP(=O)(O)O)C(=O)O (centres unmarked) [AP5, 2-amino-5-phosphonovaleric acid]",,,,190 mg/kg,neurotoxic effects

# From US20110195049A1, “COMPOSITIONS AND METHODS FOR TREATING MULTIPLE SCLEROSIS” (BIOVISTA, INC., priority 2008, published 2011)
